Results: patent publication US4160829A, “Antibacterial 1,2,4-oxadiazolylacetamido cephalosporins” (Gist-Brocades N.V., priority 1972, dated 1979)
Converted amounts (≈) assume the structure as drawn. Like-named read-outs stand apart in the source and are kept apart here.

Assays:
Staph.aureus A 2001 [1] = assay: agar serial dilution test; format: cell-based, Staphylococcus aureus; settings: Staphylococcus aureus, A2001, 24 h, read-out: minimal inhibitory concentration (MIC)
Prot.mirab. H 3 = assay: agar serial dilution test; format: cell-based, Proteus mirabilis; settings: Proteus mirabilis; agar serial dilution, 24 hours, 37° C.; read-out: minimal inhibitory concentration (MIC)
Staph.aureus A 2000 [2] = assay: agar serial dilution test; format: cell-based, Staphylococcus aureus; settings: Staphylococcus aureus, A2000, 24 h, agar serial dilution, 24 hours, 37° C.; read-out: minimal inhibitory concentration (MIC)
Esch.coli U 20 = assay: agar serial dilution test; format: cell-based, Escherichia coli; settings: Escherichia coli
Prot.mirab. A 1200 = assay: agar serial dilution test; format: cell-based, Proteus mirabilis; settings: Proteus mirabilis, 24 h, read-out: minimal inhibitory concentration (MIC)
Pseud.aerug. 2396 = assay: agar serial dilution test; format: cell-based; settings: agar serial dilution, 24 hours, 37° C.; read-out: minimal inhibitory concentration (MIC)
Prot.mirab. L 93 = assay: agar serial dilution test; format: cell-based, Proteus mirabilis; settings: Proteus mirabilis; agar serial dilution, 24 hours, 37° C.; read-out: minimal inhibitory concentration (MIC)
Dipl.pneum. L 54 = assay: agar serial dilution test; format: cell-based, Diplococcus pneumoniae; settings: Streptococcus pneumoniae; agar serial dilution, 24 hours, 37° C.; read-out: minimal inhibitory concentration (MIC)
Staph.aureus A 355 [3] = assay: agar serial dilution test; settings: Staphylococcus aureus, A355, 24 h, read-out: minimal inhibitory concentration (MIC), agar serial dilution, 24 hours, 37° C.; penicillinase-producing strain
Haem.infl. A 1030 = assay: micro serial dilution test; format: cell-based; settings: 18 h, micro serial dilution (in brackets), about 18 hours, 30° C. or 37° C.; read-out: minimal inhibitory concentration (MIC)
Kleb.pneum. A 809 = assay: agar serial dilution test; format: cell-based, Klebsiella pneumoniae; settings: Klebsiella pneumoniae; agar serial dilution, 24 hours, 37° C.; read-out: minimal inhibitory concentration (MIC)
[4] = tested on: Pseud.aerug. Wyeth A 1058; assay: agar serial dilution test; format: cell-based; settings: agar serial dilution, 24 hours, 37° C.; read-out: minimal inhibitory concentration (MIC)
Staph.aureus A 321 = assay: agar serial dilution test; format: cell-based, Staphylococcus aureus; settings: Staphylococcus aureus, A321, 24 h, agar serial dilution, 24 hours, 37° C.; read-out: minimal inhibitory concentration (MIC)
Salm.typh. R 127 = assay: agar serial dilution test; format: cell-based; settings: 24 h, 37° C., read-out: minimal inhibitory concentration (MIC)
Shig.equir. T 3 = assay: agar serial dilution test; format: cell-based; settings: 24 h, 37° C., read-out: minimal inhibitory concentration (MIC)
Strep.haem. A 266 = assay: agar serial dilution test; format: cell-based, Streptococcus haemolyticus; settings: Streptococcus; agar serial dilution, 24 hours, 37° C.; read-out: minimal inhibitory concentration (MIC)
Strep. faec. L 80 = assay: agar serial dilution test; format: cell-based, Streptococcus faecalis; settings: Enterococcus faecalis; agar serial dilution, 24 hours, 37° C.; read-out: minimal inhibitory concentration (MIC)
Prot.morg. 2241 = assay: agar serial dilution test; format: cell-based; settings: 24 h, agar serial dilution, 24 hours, 37° C.; read-out: minimal inhibitory concentration (MIC)
Prot.rettg. A 821 = assay: agar serial dilution test; format: cell-based, Proteus rettgeri; settings: Providencia rettgeri, 24 h, read-out: minimal inhibitory concentration (MIC)
Staph.aureus A 2001 [5] = assay: micro serial dilution test; format: cell-based, Staphylococcus aureus; settings: Staphylococcus aureus, A2001, 18 h, micro serial dilution (in brackets), about 18 hours, 30° C. or 37° C.; read-out: minimal inhibitory concentration (MIC)
Staph.aureus A 355 [6] = assay: micro serial dilution test; format: cell-based, Staphylococcus aureus; settings: Staphylococcus aureus, A355; micro serial dilution (in brackets), about 18 hours, 30° C. or 37° C.; penicillinase-producing strain; read-out: minimal inhibitory concentration (MIC)
Bruc.melit. A 488 = assay: microbe, parasite or virus in culture; format: cell-based; settings: Brucella melitensis, 24 h, read-out: minimal inhibitory concentration (MIC)
Past.multo. A 723 = assay: agar serial dilution test; format: cell-based, Pasteurella multocida; settings: Pasteurella multocida; agar serial dilution, 24 hours, 37° C.; read-out: minimal inhibitory concentration (MIC)
Pseud.aerug. H 10 = assay: agar serial dilution test; format: cell-based; settings: agar serial dilution, 24 hours, 37° C.; read-out: minimal inhibitory concentration (MIC)
Bac.Subt.ATCC 6633 = assay: agar serial dilution test; format: cell-based, Bacillus subtilis; settings: Bacillus subtilis, ATCC6633, 24 h, agar serial dilution, 24 hours, 37° C.; read-out: minimal inhibitory concentration (MIC)
Staph.aureus A 2000 [7] = assay: micro serial dilution test; format: cell-based, Staphylococcus aureus; settings: Staphylococcus aureus, A2000, 18 h, micro serial dilution (in brackets), about 18 hours, 30° C. or 37° C.; read-out: minimal inhibitory concentration (MIC)
Salm.dubl. P 43 = assay: agar serial dilution test; format: cell-based, Salmonella dublin; settings: Salmonella enterica, read-out: minimal inhibitory concentration (MIC)
[8] = agar serial dilution, 24 hours, 37° C.
[9] = U20, agar serial dilution, 24 hours, 37° C., read-out: minimal inhibitory concentration (MIC)
[10] = U20, 24 h, read-out: minimal inhibitory concentration (MIC), agar serial dilution, 24 hours, 37° C.

Row | SMILES | MIC (Prot.mirab. H 3) [mg/L] | MIC (Staph.aureus A 2000 [2]) [mg/L] | MIC (Pseud.aerug. 2396) [mg/L] | MIC (Prot.mirab. L 93) [mg/L] | MIC (Dipl.pneum. L 54) [mg/L] | MIC (Staph.aureus A 355 [3]) [mg/L] | MIC (Haem.infl. A 1030) [mg/L] | MIC (Kleb.pneum. A 809) [mg/L] | MIC [4] [mg/L] | MIC (Staph.aureus A 321) [mg/L] | MIC (Salm.typh. R 127) [mg/L] | MIC (Shig.equir. T 3) [mg/L] | MIC (Strep.haem. A 266) [mg/L] | MIC (Strep. faec. L 80) [mg/L] | MIC (Prot.morg. 2241) [mg/L] | MIC (Staph.aureus A 2001 [5]) [mg/L] | MIC (Staph.aureus A 355 [6]) [mg/L] | MIC (Bruc.melit. A 488) [mg/L] | MIC (Past.multo. A 723) [mg/L] | MIC (Pseud.aerug. H 10) [mg/L] | other results
1 | CC1=C(C(=O)O)N2C(=O)[C@@H](NC(=O)Cc3nc(Cc4ccccc4)no3)[C@H]2SC1 [Example 7, 7-[(3-benzyl-1,2,4-oxadiazol-5-yl)-acetamido]-desacetoxycephalosporanic acid] | > 100 | 25 (≈ 60.3 µM) | > 100 | > 100 | 4 (≈ 9.65 µM) | 100 (≈ 241 µM) | 30 (≈ 72.4 µM) | 100 (≈ 241 µM) | > 100 | 3 (≈ 7.24 µM) | > 100 | > 100 | 25 (≈ 60.3 µM) | 100 (≈ 241 µM) | > 100 | 5 (≈ 12.1 µM) | 8 (≈ 19.3 µM) | 25 (≈ 60.3 µM) | 25 (≈ 60.3 µM) | > 100 | MIC (Staph.aureus A 2001 [1]; [8]): 6 mg/L (≈ 14.5 µM); MIC (Esch.coli U 20; [9]): > 100 mg/L; MIC (Prot.mirab. A 1200; [8]): > 100 mg/L; MIC (Prot.rettg. A 821; [8]): > 100 mg/L; MIC (Bac.Subt.ATCC 6633): 3 mg/L (≈ 7.24 µM); MIC (Staph.aureus A 2000 [7]): 4 mg/L (≈ 9.65 µM); MIC (Salm.dubl. P 43; [8]): 100 mg/L (≈ 241 µM)
2 | CC(=O)OCC1=C(C(=O)O)N2C(=O)[C@@H](NC(=O)Cc3nc(-c4c(Cl)cccc4Cl)no3)[C@H]2SC1 [Example 11C, 7-{[3-(2,6-dichlorophenyl)-1,2,4-oxadiazol-5-yl]-acetamido}cephalosporanicacid] | > 100 | 0.5 (≈ 0.948 µM) | > 100 | 100 (≈ 190 µM) | 0.06 (≈ 0.114 µM) | 0.5 (≈ 0.948 µM) | 23 (≈ 43.6 µM) | 12.5 (≈ 23.7 µM) | > 100 | 0.12 (≈ 0.228 µM) | > 100 | 25 (≈ 47.4 µM) | 0.03 (≈ 0.0569 µM) | 1.5 (≈ 2.84 µM) | > 100 | 0.25 (≈ 0.474 µM) | 0.69 (≈ 1.31 µM) | 6 (≈ 11.4 µM) | 6 (≈ 11.4 µM) | > 100 | MIC (Staph.aureus A 2001 [1]; [8]): 0.5 mg/L (≈ 0.948 µM); MIC (Esch.coli U 20; [9]): > 100 mg/L; MIC (Prot.mirab. A 1200; [8]): > 100 mg/L; MIC (Prot.rettg. A 821; [8]): 3 mg/L (≈ 5.69 µM); MIC (Bac.Subt.ATCC 6633): 0.12 mg/L (≈ 0.228 µM); MIC (Staph.aureus A 2000 [7]): 0.18 mg/L (≈ 0.341 µM); MIC (Salm.dubl. P 43; [8]): > 100 mg/L
3 | CC(=O)OCC1=C(C(=O)O)N2C(=O)[C@@H](NC(=O)Cc3noc(C)n3)[C@H]2SC1 [Example 11D, 7-[(5-methyl-1,2,4-oxadiazol-3-yl)-acetamido]-cephalosporanic acid] | 6 (≈ 15.1 µM) | 3 (≈ 7.57 µM) | > 100 | 6 (≈ 15.1 µM) | 1.5 (≈ 3.78 µM) | 6 (≈ 15.1 µM) | 90 (≈ 227 µM) | 6 (≈ 15.1 µM) | > 100 | 1 (≈ 2.52 µM) | 12.5 (≈ 31.5 µM) | 1.5 (≈ 3.78 µM) | 0.5 (≈ 1.26 µM) | 100 (≈ 252 µM) | > 100 | 0.6 (≈ 1.51 µM) | 6 (≈ 15.1 µM) | 10 (≈ 25.2 µM) | 6 (≈ 15.1 µM) | > 100 | MIC (Staph.aureus A 2001 [1]; [8]): 3 mg/L (≈ 7.57 µM); MIC (Esch.coli U 20; [10]): 12.5 mg/L (≈ 31.5 µM); MIC (Prot.mirab. A 1200): 12.5 mg/L (≈ 31.5 µM); MIC (Prot.rettg. A 821; [8]): 40 mg/L (≈ 101 µM); MIC (Bac.Subt.ATCC 6633): 0.5 mg/L (≈ 1.26 µM); MIC (Staph.aureus A 2000 [7]): 1.2 mg/L (≈ 3.03 µM); MIC (Salm.dubl. P 43; 24 h): 12.5 mg/L (≈ 31.5 µM)
4 | CC1=C(C(=O)O)N2C(=O)[C@@H](NC(=O)Cc3nc(C)no3)[C@H]2SC1 [Example 11F, 7-[(3-methyl-1,2,4-oxadiazol-5-yl)-acetamido]-desacetoxycephalosporanic acid] | > 100 | 50 (≈ 148 µM) | > 100 | > 100 | 50 (≈ 148 µM) | 50 (≈ 148 µM) | 125 (≈ 369 µM) | 100 (≈ 296 µM) | > 100 | 6 (≈ 17.7 µM) | > 100 | 12.5 (≈ 36.9 µM) | 6 (≈ 17.7 µM) | > 100 | > 100 | 8 (≈ 23.6 µM) | 15 (≈ 44.3 µM) | 6 (≈ 17.7 µM) | 100 (≈ 296 µM) | > 100 | MIC (Staph.aureus A 2001 [1]): 12.5 mg/L (≈ 36.9 µM); MIC (Esch.coli U 20; [9]): > 100 mg/L; MIC (Prot.mirab. A 1200; [8]): > 100 mg/L; MIC (Prot.rettg. A 821; [8]): > 100 mg/L; MIC (Bac.Subt.ATCC 6633): 6 mg/L (≈ 17.7 µM); MIC (Staph.aureus A 2000 [7]): 15 mg/L (≈ 44.3 µM); MIC (Salm.dubl. P 43; [8]): 100 mg/L (≈ 296 µM)
5 | Cc1nc(CC(=O)N[C@@H]2C(=O)N3C(C(=O)O)=C(CN=[N+]=[N-])CS[C@H]23)no1 [Example 18, 7-[(5-methyl-1,2,4-oxadiazol-3-yl)-acetamido]-3-azidomethyl-3-cephem-4-carboxylic acid] | 25 (≈ 65.9 µM) | 1.5 (≈ 3.95 µM) | > 100 | 6 (≈ 15.8 µM) | 3 (≈ 7.91 µM) | 1.5 (≈ 3.95 µM) | 6 (≈ 15.8 µM) | 6 (≈ 15.8 µM) | > 100 | 1 (≈ 2.64 µM) | 12.5 (≈ 33 µM) | 3 (≈ 7.91 µM) | 0.25 (≈ 0.659 µM) | > 100 | > 100 | 0.9 (≈ 2.37 µM) | 1.2 (≈ 3.16 µM) | 6 (≈ 15.8 µM) | 10 (≈ 26.4 µM) | > 100 | MIC (Staph.aureus A 2001 [1]; [8]): 1 mg/L (≈ 2.64 µM); MIC (Esch.coli U 20; [10]): 12.5 mg/L (≈ 33 µM); MIC (Prot.mirab. A 1200; [8]): 25 mg/L (≈ 65.9 µM); MIC (Prot.rettg. A 821): 12.5 mg/L (≈ 33 µM); MIC (Bac.Subt.ATCC 6633): 1 mg/L (≈ 2.64 µM); MIC (Staph.aureus A 2000 [7]): 1.2 mg/L (≈ 3.16 µM); MIC (Salm.dubl. P 43; [8]): 6 mg/L (≈ 15.8 µM)
